The values below are quoted from earlier work in US20230414496A1, “BIODEGRADABLE POLYMER-NANOPARTICLE BASED IMPLANTS FOR OCULAR DRUG DELIVERY” (priority 2020, published 2023).

Like-named read-outs stand apart in the source and are kept apart here.

The conditions of series [1]: 400 μg MTX intravitreal injection.
The conditions of series [2]: 400 μg MTX intravitreal injection, pre-clinical study; read-out: peak MTX concentration (Cmax-MTX).

Turning to `CN(Cc1cnc2nc(N)nc(N)c2n1)c1ccc(C(=O)N[C@@H](CCC(=O)O)C(=O)O)cc1` [methotrexate], the “total duration of MTX release” value in series [1] (clinical study and pre-clinical study) was 2 to 6 days. The Cmax is 360 µM in series [1] (clinical study, read-out: peak MTX concentration (Cmax-MTX)) and 400 µM in series [2].
